Measured values from patent EP0792271B1, “FURAN DERIVATIVES FOR INHIBITING PNEUMOCYSTIS CARINII PNEUMONIA, GIARDIA LAMBLIA AND CRYPTOSPORIDIUM PARVUM” (priority 1994, dated 1996).
Read-outs that look alike come from different tables or passages of the source.

Experiments:
[1] = target: topoisomerase II isolated from Giardia lamblia; assay: Topoisomerase II inhibition (Giardia lamblia enzyme); type: biochemical; details: 50% inhibition of topoisomerase II isolated from Giardia lamblia; read-out: IC50 Topoisomerase Activity II G.l.
[2] = target: T1, topoisomerase II isolated from Drosophila melanogaster (Drosophila melanogaster, UniProt P15348); assay: Topoisomerase II inhibition (Drosophila melanogaster enzyme); type: biochemical
T1 construct: topoisomerase II isolated from Drosophila melanogaster; from tissue
T1 sequence (P15348 1-1447): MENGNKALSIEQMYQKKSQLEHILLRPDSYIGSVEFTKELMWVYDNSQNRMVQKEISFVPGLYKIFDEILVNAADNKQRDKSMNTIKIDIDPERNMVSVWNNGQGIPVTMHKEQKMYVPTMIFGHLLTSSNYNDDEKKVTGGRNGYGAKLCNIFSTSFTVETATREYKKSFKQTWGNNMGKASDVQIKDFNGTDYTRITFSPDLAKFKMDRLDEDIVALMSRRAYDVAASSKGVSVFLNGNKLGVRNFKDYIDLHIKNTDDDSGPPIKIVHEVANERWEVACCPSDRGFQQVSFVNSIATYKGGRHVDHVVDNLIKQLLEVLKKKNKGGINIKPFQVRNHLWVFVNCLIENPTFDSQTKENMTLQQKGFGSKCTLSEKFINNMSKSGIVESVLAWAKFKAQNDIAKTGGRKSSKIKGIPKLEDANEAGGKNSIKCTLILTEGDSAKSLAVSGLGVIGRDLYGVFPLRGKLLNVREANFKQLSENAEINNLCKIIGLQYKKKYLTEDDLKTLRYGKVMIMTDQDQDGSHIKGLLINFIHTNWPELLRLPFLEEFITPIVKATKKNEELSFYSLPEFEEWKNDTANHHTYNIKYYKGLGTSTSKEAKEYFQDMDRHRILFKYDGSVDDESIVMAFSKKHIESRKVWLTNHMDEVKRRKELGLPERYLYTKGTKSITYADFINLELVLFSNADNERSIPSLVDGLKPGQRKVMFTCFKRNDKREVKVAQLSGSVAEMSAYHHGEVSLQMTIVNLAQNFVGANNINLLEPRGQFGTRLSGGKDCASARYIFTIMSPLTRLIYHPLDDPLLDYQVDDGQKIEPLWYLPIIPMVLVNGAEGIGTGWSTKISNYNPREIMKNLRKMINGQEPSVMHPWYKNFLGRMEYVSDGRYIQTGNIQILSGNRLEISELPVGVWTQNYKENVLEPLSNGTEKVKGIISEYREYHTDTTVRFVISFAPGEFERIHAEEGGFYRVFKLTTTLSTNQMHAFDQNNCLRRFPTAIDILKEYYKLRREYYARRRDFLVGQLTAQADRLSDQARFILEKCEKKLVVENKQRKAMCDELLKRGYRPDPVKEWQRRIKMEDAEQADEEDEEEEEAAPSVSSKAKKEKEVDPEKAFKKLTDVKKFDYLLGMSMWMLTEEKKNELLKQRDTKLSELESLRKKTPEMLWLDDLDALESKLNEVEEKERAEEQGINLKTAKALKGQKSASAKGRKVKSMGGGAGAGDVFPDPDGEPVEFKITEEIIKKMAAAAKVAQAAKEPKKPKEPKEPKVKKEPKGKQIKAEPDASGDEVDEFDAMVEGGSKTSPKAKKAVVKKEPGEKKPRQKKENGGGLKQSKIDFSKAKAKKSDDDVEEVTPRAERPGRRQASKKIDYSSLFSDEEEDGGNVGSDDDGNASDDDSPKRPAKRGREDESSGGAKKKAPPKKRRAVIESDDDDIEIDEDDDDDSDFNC

Giardia lamblia = assay: Inhibition of growth of Giardia lamblia in in vitro culture; type: cell-based; details: read-out: IC50 Giardia lamblia
Pneumocystis carinii = assay: In vivo activity against Pneumocystis carinii (lung cyst counts and toxicity); details: for Toxicity: toxicity scale, larger value = more severe, values greater than 2 indicate deaths of some animals
poly A poly T = assay: DNA thermal melting (increase in Tm of poly A poly T); type: binding; details: MES buffer pH 6.0, 0.1 M NaCl, ratio of 0.3 moles of compound to nucleic acid bases
Procedure: (§1) Thermal melting curves for DNA and its complexes with compounds from Examples 4, 6, and 7-9 are determined as previously described in F.A. Tanious, et al., J.Biomol. Structure & Dynamics 11:1063 (1994) and W.D. Wilson, et al., Biochemistry 32:4098 (1993), by following the adsorption change at 260 nm as a function of temperature. Tm values were determined from first derivative plots. Compounds are compared by the increase in Tm (ΔTm=Tm of complex - Tm of the free nucleic acid) they produce in MES buffer (0.01M 2-(N-morpholino) ethanesulfonic acid, 0.001 M EDTA, 0.1 M NaCl adjusted to pH 6.0) at saturating amounts of compound (a ratio of 0.3 moles of compound to nucleic acid bases) unless otherwise indicated.

[3] = tested on: oligomer d(GCGCAATTGCGC)2; assay: DNA thermal melting (increase in Tm of oligomer); type: binding; details: increase in thermal melting of the oligomer d(GCGCAATTGCGC)2; MES buffer pH 6.0
Procedure: as §1

[4] = target: topoisomerase I isolated from Pneumocystis carinii; assay: Topoisomerase I inhibition (Pneumocystis carinii enzyme); type: biochemical; details: 50% inhibition of topoisomerase I isolated from Pneumocystis carinii
[5] = 50% inhibition of topoisomerase II isolated from Drosophila melanogaster, read-out: IC50 Topoisomerase Activity II D.m.
[6] = 50% inhibition of growth of Giardia lamblia in in vitro culture
[7] = Pneumocystis carinii, iv, read-out: cyst/g lung (% of control)

Compound	IC50 [1] [µM]	IC50 [2] [µM]	IC50 (Giardia lamblia; Giardia duodenalis) [µM]	ΔTm DNA (poly A poly T) [°C]	also measured
2,5-bis[2-(imidazolinyl)phenyl]-3,4-bis(methoxymethyl)furan [Compound 18]	0.8 to 1	–	–	–	IC50 [2, 5]: 12.5 µM; IC50 (Giardia lamblia; [6]): 4.42 µM
c1cc(-c2ccc(-c3ccc(C4=NCCN4)cc3)o2)ccc1C1=NCCN1 [Compound 2, 2,5-bis[4-(2-imidazolinyl)phenyl]furan]	–	8	0.8	–	response vs control in vivo at 23.3 µM (Pneumocystis carinii; [7]): 35.4%; Toxicity (Pneumocystis carinii; dosage 23.3 µM/kg/day intravenous): +2
c1cc(-c2ccc(-c3ccc(C4=NCCCCN4)cc3)o2)ccc1C1=NCCCCN1 [Compound 4, 2,5-bis[4-(4,5,6,7-tetrahydro-1H-1,3-diazepin-2-yl)phenyl]furan]	1.5	25 to 50	1.1	> 28	ΔTm Oligomer [3]: 10.7 °C; response vs control in vivo at 0.18 µM (Pneumocystis carinii; [7]): 115%; response vs control in vivo at 2.3 µM (Pneumocystis carinii; [7]): 2.9%; Toxicity (Pneumocystis carinii; dosage 0.18 µM/kg/day intravenous): 0; Toxicity (Pneumocystis carinii; dosage 2.3 µM/kg/day intravenous): +3
c1cc(-c2ccc(-c3ccc(C4=NC5CCCCC5N4)cc3)o2)ccc1C1=NC2CCCCC2N1 (stereo not shown) [Compound 5, 2,5-bis[4-(3a,4,5,6,7,7a-hexahydro-1H-benzimidazol-2-yl)phenyl]furan]	3 to 6	50	1.7	24.5	ΔTm Oligomer [3]: 5.6 °C; response vs control in vivo at 9.2 µM (Pneumocystis carinii; [7]): 80.5%; Toxicity (Pneumocystis carinii; dosage 9.2 µM/kg/day intravenous): +1
OCCN1CCN=C1c1ccc(-c2ccc(-c3ccc(C4=NCCN4CCO)cc3)o2)cc1 [Compound 6, 2,5-bis{4[2-(N-2-hydroxyethyl)imidazolinyl]-phenyl}furan]	20	200	5.3	12.2	ΔTm Oligomer [3]: 1 °C; response vs control in vivo at 4.8 µM (Pneumocystis carinii; [7]): 107%; Toxicity (Pneumocystis carinii; dosage 4.8 µM/kg/day intravenous): +3
CCN1CCN=C1c1ccc(-c2ccc(-c3ccc(C4=NCCN4CC)cc3)o2)cc1 [Compound 7, 2,5-bis-{4-[2-(N-ethylimidazolinyl)]phenyl}furan]	25	–	–	11.8	–
Cc1c(-c2ccc(C(=N)N)cc2)oc(-c2ccc(C(=N)N)cc2)c1C [Compound 8, 2,5-bis(4-amidinophenyl)-3,4-dimethyl furan]	0.75	2.4	0.26	–	IC50 [4]: < 3.12 µM; Toxicity (Pneumocystis carinii; dosage 24.7 µM/kg/day intravenous): +1
Cc1ccc(Oc2cc(-c3ccc(C4=NCCN4)cc3)oc2-c2ccc(C3=NCCN3)cc2)cc1 [Compound 9, 2,5-[bis{4-(2-imidazolinyl)}phenyl]3-p-tolyloxy furan]	2 to 4	25	> 100	18.1	IC50 [4]: 12.5 µM; Toxicity (Pneumocystis carinii; dosage 9.3 µM/kg/day intravenous): +2
Cc1ccc(Oc2cc(-c3ccc(C4=NCCCN4)cc3)oc2-c2ccc(C3=NCCCN3)cc2)cc1 [Compound 10]	1 to 3	50 to 100	3.3	> 28	Toxicity (Pneumocystis carinii; dosage 1.8 µM/kg/day intravenous): +3
NCCNC(=O)c1ccc2[nH]c(-c3ccc(-c4ccc(-c5ccc(-c6nc7cc(C(=O)NCCN)ccc7[nH]6)cc5)o4)cc3)nc2c1 [Compound 11, 2,5-bis{4-[5-(N-2-aminoethylamido)benzimidazol-2-yl]phenyl}furan]	5	> 300	0.62	–	Toxicity (Pneumocystis carinii; dosage 4.1 µM/kg/day intravenous): +4
CN(C)NC(=O)c1ccc(-c2ccc(-c3ccc(C(=O)NN(C)C)cc3)o2)cc1 [Compound 12, 2,5-bis(4-N,N-dimethylcarboxhydrazidephenyl) furan]	0.6 to 1.2	–	–	–	IC50 [2, 5]: 30 to 60 µM; IC50 (Giardia lamblia; [6]): 0.35 µM; cyst/g lung (% of control) (Pneumocystis carinii; dosage 7.78 µM/kg/day intravenous, percentage of saline-treated controls): 20.7 % of control; Toxicity (Pneumocystis carinii; dosage 7.78 µM/kg/day intravenous): +3
CN(C)CCCNC(=N)c1ccc(-c2ccc(-c3ccc(C(=N)NCCCN(C)C)cc3)o2)cc1 [Compound 14, 2,5-bis{4-[3-(dimethylaminopropyl)amidino]phenyl}furan]	0.25	> 6.2	8.98	> 28	Toxicity (Pneumocystis carinii; dosage 3.9 µM/kg/day intravenous): +3
N=C(NC1CC1)c1ccc(-c2ccc(-c3ccc(C(=N)NC4CC4)cc3)o2)cc1 [Compound 15, 2,5-bis-[4-N-(cyclopropylamidino)phenyl]furan]	1.25	–	0.63	> 28	–
N=C(NCCO)c1ccc(-c2ccc(-c3ccc(C(=N)NCCO)cc3)o2)cc1 [Compound 16, 2,5-bis-{4-[(N-2-hydroxyethyl)amidino]phenyl}furan]	1.2 to 2.5	25 to 50	0.78	21.1	Toxicity (Pneumocystis carinii; dosage 10.4 µM/kg/day intravenous): 0
CN(C)CCNC(=N)c1ccc(-c2ccc(-c3ccc(C(=N)NCCN(C)C)cc3)o2)cc1 [Compound 17, 2,5-bis[4-N-(dimethylaminoethyl)amidino]phenyl furan]	0.8	12.5	10.8	–	–
N=C(NCCCN)c1ccc(-c2ccc(-c3ccc(C(=N)NCCCN)cc3)o2)cc1 [Compound 19, 2,5-bis-{4-[N-(3-aminopropyl)amidino]phenyl}furan]	0.625	25	0.059	–	–
Cc1cc(-c2ccc(C(=N)NC(C)C)cc2)oc1-c1ccc(C(=N)NC(C)C)cc1 [Compound 20, 2,5-bis[4-(N-isopropylamidino)phenyl]-3-methylfuran]	1 to 2	3	4.4	–	IC50 [4]: 50 to 100 µM
N=C(N)c1ccc(OCCCCCOc2ccc(C(=N)N)cc2)cc1 [Pentamidine, reference compound]	–	–	–	–	response vs control in vivo at 22.1 µM (Pneumocystis carinii; [7]): 3.66%; Toxicity (Pneumocystis carinii; dosage 22.1 µM/kg/day intravenous): +2
